{
  "source": "the kinase profiling compilation of Christmann-Franck et al. (2016)",
  "key": {"CDC2L2 (human)": {"molecular_target": "CDC2L2 (human) (UniProt Q9UQ88)", "assay": "KINOMEscan competition binding", "details": "compound 10.0 µM"}, "CDK11A (human)": {"molecular_target": "CDK11A (human) (UniProt Q9UQ88)", "assay": "KINOMEscan competition binding", "details": "compound 10.0 µM"}, "CDK11B (human)": {"molecular_target": "CDK11B (human) (UniProt P21127)", "assay": "KINOMEscan competition binding", "details": "compound 10.0 µM"}, "CSNK2A1 (human)": {"molecular_target": "CSNK2A1 (human) (UniProt P68400)", "assay": "KINOMEscan competition binding", "details": "compound 10.0 µM"}, "CSNK2A2 (human)": {"molecular_target": "CSNK2A2 (human) (UniProt P19784)", "assay": "KINOMEscan competition binding", "details": "compound 10.0 µM"}, "DAPK1 (human)": {"molecular_target": "DAPK1 (human) (UniProt P53355)", "assay": "KINOMEscan competition binding", "details": "compound 10.0 µM"}, "DDR1 (human)": {"molecular_target": "DDR1 (human) (UniProt Q08345)", "assay": "KINOMEscan competition binding", "details": "compound 10.0 µM"}, "DDR2 (human)": {"molecular_target": "DDR2 (human) (UniProt Q16832)", "assay": "KINOMEscan competition binding", "details": "compound 10.0 µM"}, "FLT1 (human)": {"molecular_target": "FLT1 (human) (UniProt P17948)", "assay": "KINOMEscan competition binding", "details": "compound 10.0 µM"}, "FLT4 (human)": {"molecular_target": "FLT4 (human) (UniProt P35916)", "assay": "KINOMEscan competition binding", "details": "compound 10.0 µM"}, "HIPK1 (human)": {"molecular_target": "HIPK1 (human) (UniProt Q86Z02)", "assay": "KINOMEscan competition binding", "details": "compound 10.0 µM"}, "KDR (human)": {"molecular_target": "KDR (human) (UniProt P35968)", "assay": "KINOMEscan competition binding", "details": "compound 10.0 µM"}, "KIT (human)": {"molecular_target": "KIT (human) (UniProt P10721)", "assay": "KINOMEscan competition binding", "details": "compound 10.0 µM"}, "[1]": {"test_system": "KIT (human), P10721 [V559D/T670I]", "assay": "KINOMEscan competition binding", "details": "compound 10.0 µM"}, "[2]": {"test_system": "KIT (human), P10721 [V559D]", "assay": "KINOMEscan competition binding", "details": "compound 10.0 µM"}, "MAPK8 (human)": {"molecular_target": "MAPK8 (human) (UniProt P45983)", "assay": "KINOMEscan competition binding", "details": "compound 10.0 µM"}, "MARK3 (human)": {"molecular_target": "MARK3 (human) (UniProt P27448)", "assay": "KINOMEscan competition binding", "details": "compound 10.0 µM"}, "PDGFRA (human)": {"molecular_target": "PDGFRA (human) (UniProt P16234)", "assay": "KINOMEscan competition binding", "details": "compound 10.0 µM"}, "PDGFRB (human)": {"molecular_target": "PDGFRB (human) (UniProt P09619)", "assay": "KINOMEscan competition binding", "details": "compound 10.0 µM"}, "PHKG1 (human)": {"molecular_target": "PHKG1 (human) (UniProt Q16816)", "sequence (Q16816 whole entry, looked up)": "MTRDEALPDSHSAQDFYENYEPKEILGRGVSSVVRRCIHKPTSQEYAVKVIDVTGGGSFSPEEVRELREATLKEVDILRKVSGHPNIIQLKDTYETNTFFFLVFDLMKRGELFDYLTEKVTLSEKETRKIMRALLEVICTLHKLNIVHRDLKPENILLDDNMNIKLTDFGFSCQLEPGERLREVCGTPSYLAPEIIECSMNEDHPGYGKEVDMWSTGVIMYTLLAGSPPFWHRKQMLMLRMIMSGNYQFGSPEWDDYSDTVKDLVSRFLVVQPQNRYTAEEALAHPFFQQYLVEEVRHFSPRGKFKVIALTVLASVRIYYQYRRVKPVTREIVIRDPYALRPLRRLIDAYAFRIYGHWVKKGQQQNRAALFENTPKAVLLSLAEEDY", "assay": "KINOMEscan competition binding", "details": "compound 10.0 µM"}, "PIM1 (human) [3]": {"molecular_target": "PIM1 (human) (UniProt P11309)", "sequence (P11309 whole entry, looked up)": "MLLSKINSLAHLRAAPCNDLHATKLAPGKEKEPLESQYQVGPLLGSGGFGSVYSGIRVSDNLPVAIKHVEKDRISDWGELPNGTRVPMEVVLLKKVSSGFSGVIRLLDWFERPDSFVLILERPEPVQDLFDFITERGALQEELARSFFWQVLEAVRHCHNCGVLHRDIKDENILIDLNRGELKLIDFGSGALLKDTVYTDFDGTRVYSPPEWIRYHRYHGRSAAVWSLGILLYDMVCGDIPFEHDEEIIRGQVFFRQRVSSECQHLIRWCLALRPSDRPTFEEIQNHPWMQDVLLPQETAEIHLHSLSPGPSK", "assay": "KINOMEscan competition binding", "details": "compound 10.0 µM"}, "PIM2 (human) [4]": {"molecular_target": "PIM2 (human) (UniProt Q9P1W9)", "sequence (Q9P1W9 whole entry, looked up)": "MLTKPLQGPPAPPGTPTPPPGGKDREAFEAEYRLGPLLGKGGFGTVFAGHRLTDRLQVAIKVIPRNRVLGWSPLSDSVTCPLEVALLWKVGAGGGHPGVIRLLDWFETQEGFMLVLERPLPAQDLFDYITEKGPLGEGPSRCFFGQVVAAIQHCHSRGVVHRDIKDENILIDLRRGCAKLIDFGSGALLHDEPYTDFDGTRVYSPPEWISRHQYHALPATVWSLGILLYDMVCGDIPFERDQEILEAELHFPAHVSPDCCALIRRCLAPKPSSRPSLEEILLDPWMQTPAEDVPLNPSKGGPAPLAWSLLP", "assay": "KINOMEscan competition binding", "details": "compound 10.0 µM"}, "PIM3 (human)": {"molecular_target": "PIM3 (human) (UniProt Q86V86)", "assay": "KINOMEscan competition binding", "details": "compound 10.0 µM"}, "PLK4 (human)": {"molecular_target": "PLK4 (human) (UniProt O00444)", "assay": "KINOMEscan competition binding", "details": "compound 10.0 µM"}, "RET (human)": {"molecular_target": "RET (human) (UniProt P07949)", "sequence (P07949 whole entry, looked up)": "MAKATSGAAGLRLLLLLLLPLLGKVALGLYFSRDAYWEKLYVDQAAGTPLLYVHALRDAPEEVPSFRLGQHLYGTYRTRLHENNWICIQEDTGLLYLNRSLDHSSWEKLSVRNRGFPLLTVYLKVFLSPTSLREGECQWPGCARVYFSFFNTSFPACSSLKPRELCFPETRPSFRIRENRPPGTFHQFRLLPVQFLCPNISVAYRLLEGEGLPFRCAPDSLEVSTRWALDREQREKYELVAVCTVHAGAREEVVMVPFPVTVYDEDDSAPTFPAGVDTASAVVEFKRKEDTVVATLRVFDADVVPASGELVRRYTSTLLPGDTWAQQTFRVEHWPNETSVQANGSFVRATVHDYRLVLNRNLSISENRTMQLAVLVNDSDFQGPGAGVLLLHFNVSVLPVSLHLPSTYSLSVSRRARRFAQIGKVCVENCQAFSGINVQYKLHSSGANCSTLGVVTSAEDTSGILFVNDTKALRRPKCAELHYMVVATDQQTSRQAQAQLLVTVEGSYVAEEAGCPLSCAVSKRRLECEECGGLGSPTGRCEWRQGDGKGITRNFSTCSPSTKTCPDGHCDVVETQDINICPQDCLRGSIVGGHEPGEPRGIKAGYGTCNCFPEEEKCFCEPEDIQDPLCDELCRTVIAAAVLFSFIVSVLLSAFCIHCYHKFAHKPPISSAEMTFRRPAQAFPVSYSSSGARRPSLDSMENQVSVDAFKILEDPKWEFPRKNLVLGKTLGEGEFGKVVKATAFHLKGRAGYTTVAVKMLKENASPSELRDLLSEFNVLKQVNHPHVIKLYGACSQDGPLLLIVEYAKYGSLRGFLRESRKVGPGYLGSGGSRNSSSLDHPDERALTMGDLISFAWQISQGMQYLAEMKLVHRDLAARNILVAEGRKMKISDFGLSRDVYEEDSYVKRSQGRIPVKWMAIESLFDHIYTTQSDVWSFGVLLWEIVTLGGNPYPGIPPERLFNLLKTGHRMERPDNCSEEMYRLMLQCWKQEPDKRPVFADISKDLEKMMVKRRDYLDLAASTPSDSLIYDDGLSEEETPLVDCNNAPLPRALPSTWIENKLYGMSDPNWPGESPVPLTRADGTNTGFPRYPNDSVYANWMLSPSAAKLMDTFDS", "assay": "KINOMEscan competition binding", "details": "compound 10.0 µM"}, "[5]": {"test_system": "RET (human), P07949 [M918T]", "sequence (P07949 whole entry M918T, looked up)": "as the sequence (P07949 whole entry, looked up) above, with M918T counted along it", "assay": "KINOMEscan competition binding", "details": "compound 10.0 µM"}, "RPS6KA1 KD2 (human)": {"molecular_target": "RPS6KA1 KD2 (human) (UniProt Q15418)", "assay": "KINOMEscan competition binding", "details": "compound 10.0 µM"}, "RPS6KA2 KD2 (human)": {"molecular_target": "RPS6KA2 KD2 (human) (UniProt Q15349)", "assay": "KINOMEscan competition binding", "details": "compound 10.0 µM"}, "RPS6KA6 KD2 (human)": {"molecular_target": "RPS6KA6 KD2 (human) (UniProt Q9UK32)", "assay": "KINOMEscan competition binding", "details": "compound 10.0 µM"}, "SLK (human)": {"molecular_target": "SLK (human) (UniProt Q9H2G2)", "sequence (Q9H2G2 whole entry, looked up)": "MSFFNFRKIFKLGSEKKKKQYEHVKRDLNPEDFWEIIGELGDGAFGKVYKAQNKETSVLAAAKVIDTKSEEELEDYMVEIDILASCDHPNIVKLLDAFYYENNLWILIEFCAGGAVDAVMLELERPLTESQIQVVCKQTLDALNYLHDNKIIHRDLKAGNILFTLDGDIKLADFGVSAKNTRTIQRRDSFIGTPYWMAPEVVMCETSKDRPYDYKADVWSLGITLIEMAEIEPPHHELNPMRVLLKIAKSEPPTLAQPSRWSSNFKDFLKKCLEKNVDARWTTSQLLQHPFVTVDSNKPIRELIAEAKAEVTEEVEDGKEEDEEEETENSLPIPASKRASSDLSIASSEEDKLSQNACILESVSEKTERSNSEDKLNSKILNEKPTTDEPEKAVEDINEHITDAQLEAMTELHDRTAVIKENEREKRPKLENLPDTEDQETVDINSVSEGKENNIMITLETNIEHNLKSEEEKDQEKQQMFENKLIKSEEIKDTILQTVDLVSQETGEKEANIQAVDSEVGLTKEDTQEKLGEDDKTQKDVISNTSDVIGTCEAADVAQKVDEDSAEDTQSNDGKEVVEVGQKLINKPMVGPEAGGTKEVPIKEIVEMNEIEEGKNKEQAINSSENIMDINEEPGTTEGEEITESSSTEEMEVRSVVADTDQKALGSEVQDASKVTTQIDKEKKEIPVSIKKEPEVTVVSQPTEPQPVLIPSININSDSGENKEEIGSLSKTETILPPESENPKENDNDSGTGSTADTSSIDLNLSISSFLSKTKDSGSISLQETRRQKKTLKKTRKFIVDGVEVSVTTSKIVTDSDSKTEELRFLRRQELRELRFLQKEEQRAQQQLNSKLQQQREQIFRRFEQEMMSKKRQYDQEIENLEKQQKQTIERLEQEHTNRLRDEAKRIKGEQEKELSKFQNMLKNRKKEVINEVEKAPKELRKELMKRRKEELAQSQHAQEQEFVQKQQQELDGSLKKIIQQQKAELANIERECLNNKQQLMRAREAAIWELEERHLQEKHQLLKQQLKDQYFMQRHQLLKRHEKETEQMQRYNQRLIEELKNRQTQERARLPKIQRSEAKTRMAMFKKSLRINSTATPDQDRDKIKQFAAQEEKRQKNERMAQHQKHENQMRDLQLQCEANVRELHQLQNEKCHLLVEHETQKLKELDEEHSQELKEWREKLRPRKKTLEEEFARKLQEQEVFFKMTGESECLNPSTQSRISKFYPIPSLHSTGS", "assay": "KINOMEscan competition binding", "details": "compound 10.0 µM"}, "STK10 (human)": {"molecular_target": "STK10 (human) (UniProt O94804)", "assay": "KINOMEscan competition binding", "details": "compound 10.0 µM"}, "STK17A (human)": {"molecular_target": "STK17A (human) (UniProt Q9UEE5)", "sequence (Q9UEE5 whole entry, looked up)": "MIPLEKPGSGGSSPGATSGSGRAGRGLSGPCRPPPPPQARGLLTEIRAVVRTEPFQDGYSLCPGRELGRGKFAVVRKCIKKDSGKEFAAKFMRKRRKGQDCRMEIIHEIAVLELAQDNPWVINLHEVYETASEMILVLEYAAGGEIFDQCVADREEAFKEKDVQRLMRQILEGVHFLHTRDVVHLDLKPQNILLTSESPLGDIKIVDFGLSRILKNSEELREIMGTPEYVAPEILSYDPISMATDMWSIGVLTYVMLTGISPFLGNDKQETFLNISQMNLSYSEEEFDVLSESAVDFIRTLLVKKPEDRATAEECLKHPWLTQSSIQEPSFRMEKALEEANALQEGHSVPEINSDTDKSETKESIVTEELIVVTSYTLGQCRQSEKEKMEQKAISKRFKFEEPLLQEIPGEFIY", "assay": "KINOMEscan competition binding", "details": "compound 10.0 µM"}, "STK17B (human)": {"molecular_target": "STK17B (human) (UniProt O94768)", "sequence (O94768 whole entry, looked up)": "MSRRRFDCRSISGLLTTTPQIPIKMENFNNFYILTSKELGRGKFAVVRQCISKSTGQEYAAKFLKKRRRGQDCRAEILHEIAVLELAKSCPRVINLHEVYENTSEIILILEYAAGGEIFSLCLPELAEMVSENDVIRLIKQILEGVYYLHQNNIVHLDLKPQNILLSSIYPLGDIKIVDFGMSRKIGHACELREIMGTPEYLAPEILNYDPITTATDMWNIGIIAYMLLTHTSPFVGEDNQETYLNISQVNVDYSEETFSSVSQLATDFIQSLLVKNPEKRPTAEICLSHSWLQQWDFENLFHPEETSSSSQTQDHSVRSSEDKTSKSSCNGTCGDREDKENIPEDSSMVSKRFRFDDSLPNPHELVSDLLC", "assay": "KINOMEscan competition binding", "details": "compound 10.0 µM"}, "STK24 (human)": {"molecular_target": "STK24 (human) (UniProt Q9Y6E0)", "sequence (Q9Y6E0 whole entry, looked up)": "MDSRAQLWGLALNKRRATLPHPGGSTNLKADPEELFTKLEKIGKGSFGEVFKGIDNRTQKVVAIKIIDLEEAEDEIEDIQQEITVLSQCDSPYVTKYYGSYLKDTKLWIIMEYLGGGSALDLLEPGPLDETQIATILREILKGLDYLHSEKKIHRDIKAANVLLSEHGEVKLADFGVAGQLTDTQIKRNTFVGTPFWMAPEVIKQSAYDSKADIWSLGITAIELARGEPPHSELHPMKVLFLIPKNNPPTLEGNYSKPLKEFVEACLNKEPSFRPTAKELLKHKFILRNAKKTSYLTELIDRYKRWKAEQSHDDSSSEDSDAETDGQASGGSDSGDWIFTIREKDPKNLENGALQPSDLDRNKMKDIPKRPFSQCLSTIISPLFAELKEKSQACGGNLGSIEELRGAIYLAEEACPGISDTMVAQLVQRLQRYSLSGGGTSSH", "assay": "KINOMEscan competition binding", "details": "compound 10.0 µM"}, "TIE1 (human)": {"molecular_target": "TIE1 (human) (UniProt P35590)", "assay": "KINOMEscan competition binding", "details": "compound 10.0 µM"}, "TLK1 (human)": {"molecular_target": "TLK1 (human) (UniProt Q9UKI8)", "assay": "KINOMEscan competition binding", "details": "compound 10.0 µM"}, "PIM1 (human) [6]": {"molecular_target": "PIM1 (human) (UniProt P11309)", "assay": "SelectScreen, TR FRET"}, "PIM2 (human) [7]": {"molecular_target": "PIM2 (human) (UniProt Q9P1W9)", "assay": "SelectScreen, TR FRET"}},
  "data": [
    {"smiles": "CCN1CCN(Cc2cc(NC(=O)c3cccc4cc(-c5ccc(/C=C6\\SC(=O)NC6=O)o5)ccc34)cc(C(F)(F)F)c2)CC1", "values": [
      {"measurement": "kinase still bound, per cent of control", "setting": "CDC2L2 (human)", "result": 18, "unit": "%"},
      {"measurement": "kinase still bound, per cent of control", "setting": "CDK11A (human)", "result": 24, "unit": "%"},
      {"measurement": "kinase still bound, per cent of control", "setting": "CDK11B (human)", "result": 30, "unit": "%"},
      {"measurement": "kinase still bound, per cent of control", "setting": "CSNK2A1 (human)", "result": 4.6, "unit": "%"},
      {"measurement": "kinase still bound, per cent of control", "setting": "CSNK2A2 (human)", "result": 6.4, "unit": "%"},
      {"measurement": "kinase still bound, per cent of control", "setting": "DAPK1 (human)", "result": 34, "unit": "%"},
      {"measurement": "kinase still bound, per cent of control", "setting": "DDR1 (human)", "result": 0.15, "unit": "%"},
      {"measurement": "kinase still bound, per cent of control", "setting": "DDR2 (human)", "result": 7.6, "unit": "%"},
      {"measurement": "kinase still bound, per cent of control", "setting": "FLT1 (human)", "result": 12, "unit": "%"},
      {"measurement": "kinase still bound, per cent of control", "setting": "FLT4 (human)", "result": 5.9, "unit": "%"},
      {"measurement": "kinase still bound, per cent of control", "setting": "HIPK1 (human)", "result": 5.4, "unit": "%"},
      {"measurement": "kinase still bound, per cent of control", "setting": "KDR (human)", "result": 9, "unit": "%"},
      {"measurement": "kinase still bound, per cent of control", "setting": "KIT (human)", "result": 2.6, "unit": "%"},
      {"measurement": "kinase still bound, per cent of control", "setting": "[1]", "result": 2.4, "unit": "%"},
      {"measurement": "kinase still bound, per cent of control", "setting": "[2]", "result": 1.2, "unit": "%"},
      {"measurement": "kinase still bound, per cent of control", "setting": "MAPK8 (human)", "result": 32, "unit": "%"},
      {"measurement": "kinase still bound, per cent of control", "setting": "MARK3 (human)", "result": 32, "unit": "%"},
      {"measurement": "kinase still bound, per cent of control", "setting": "PDGFRA (human)", "result": 0.55, "unit": "%"},
      {"measurement": "kinase still bound, per cent of control", "setting": "PDGFRB (human)", "result": 0.25, "unit": "%"},
      {"measurement": "kinase still bound, per cent of control", "setting": "PHKG1 (human)", "result": 0, "unit": "%"},
      {"measurement": "kinase still bound, per cent of control", "setting": "PIM1 (human) [3]", "result": 11, "unit": "%"},
      {"measurement": "kinase still bound, per cent of control", "setting": "PIM2 (human) [4]", "result": 0.4, "unit": "%"},
      {"measurement": "kinase still bound, per cent of control", "setting": "PIM3 (human)", "result": 7, "unit": "%"},
      {"measurement": "kinase still bound, per cent of control", "setting": "PLK4 (human)", "result": 33, "unit": "%"},
      {"measurement": "kinase still bound, per cent of control", "setting": "RET (human)", "result": 4.6, "unit": "%"},
      {"measurement": "kinase still bound, per cent of control", "setting": "[5]", "result": 3.9, "unit": "%"},
      {"measurement": "kinase still bound, per cent of control", "setting": "RPS6KA1 KD2 (human)", "result": 18, "unit": "%"},
      {"measurement": "kinase still bound, per cent of control", "setting": "RPS6KA2 KD2 (human)", "result": 29, "unit": "%"},
      {"measurement": "kinase still bound, per cent of control", "setting": "RPS6KA6 KD2 (human)", "result": 20, "unit": "%"},
      {"measurement": "kinase still bound, per cent of control", "setting": "SLK (human)", "result": 30, "unit": "%"},
      {"measurement": "kinase still bound, per cent of control", "setting": "STK10 (human)", "result": 0.15, "unit": "%"},
      {"measurement": "kinase still bound, per cent of control", "setting": "STK17A (human)", "result": 15, "unit": "%"},
      {"measurement": "kinase still bound, per cent of control", "setting": "STK17B (human)", "result": 0.3, "unit": "%"},
      {"measurement": "kinase still bound, per cent of control", "setting": "STK24 (human)", "result": 25, "unit": "%"},
      {"measurement": "kinase still bound, per cent of control", "setting": "TIE1 (human)", "result": 5.8, "unit": "%"},
      {"measurement": "kinase still bound, per cent of control", "setting": "TLK1 (human)", "result": 13, "unit": "%"},
      {"measurement": "IC50", "setting": "PIM1 (human) [6]", "result": 774, "unit": "nM"},
      {"measurement": "IC50", "setting": "PIM2 (human) [7]", "result": 814, "unit": "nM"}
    ]}
  ]
}
